Source: patent US12617771B2, “Diphenylpyrazole compound, and preparation method therefor and application thereof” (NORTHWEST A&F UNIVERSITY, priority 2021, dated 2026)
Counter-ions that a name gives are not always drawn.

Key:
[1] = system: high resistant strains II of Plutella xylostella (Lianzhou insect source); test: Insecticidal synergistic activity with chlorantraniliprole, high resistant strains II (Lianzhou insect source); format: in vivo; conditions: for Resistance ratio to chlorantraniliprole: high resistant strains II (Lianzhou)
Method: (§1) Experiment: 96% chlorantraniliprole (Chl) original drug was prepared into mother liquor with a concentration of 50000 mg/L. During the test, 6 treatment solutions with concentrations of 500, 250, 125, 62.5, 31.25 and 15.63 mg/L were prepared. 200 mg/L of the compound PXG22 of the present invention was added to each treatment solution, 200 mg/L of diethyl maleate (DEM) was used as the control synergist, and water was used as another control. The Plutella xylostella (Linnaeus) larvae was collected from a vegetable field in Yunnan Province. Healthy 3rd instar larvae of the same age were selected for indoor biological activity assay.
(§2) Clean wild cabbage leaves were cut into discs with a diameter of 6.5 cm (avoiding main veins). The leaves were soaked in the pesticide solution for 10 seconds, then taken out, dried at 25° C., and placed in a petri dish with a diameter of 6.5 cm. 10 larvae of the resistant strains of Plutella xylostella at the early stage of 3rd instar were placed in each petri dish, which was covered with double-layer absorbent roll paper, and covered by the upper cover of the petri dish. It was placed face up in an incubator at a temperature of 25±1° C., a relative humidity of 65%-70%, and a light ratio (L:D) of 16: 8 h. Each treatment was replicated 4 times with 10 larvae per replicate. […] The test process is strictly in accordance with the standard: NY/T 1154.7-2006.
(§3) Experimental data analysis was carried out using practical statistical analysis and its computer processing platform (DPS) (TANG Qiyi et al., 1997). The toxicity regression equation of each agent was established, LC50 value and 95% confidence limit were calculated.
(§4) Experiment: The method was the same as in Experimental example 4, and the tested Plutella xylostella was the high resistant strains II against chlorantraniliprole (Lianzhou source). The added concentrations of the compound PXG22 of the present invention were 200 mg/L, 100 mg/L, 50 mg/L and 25 mg/L, and the added concentration of diethyl maleate (DEM) of the control synergist was maintained at 200 mg/L.

[2] = system: resistant strains of Plutella xylostella; test: Insecticidal synergistic activity with chlorantraniliprole, leaf dip, resistant strains (Yunnan); format: in vivo; conditions: for Resistance ratio to chlorantraniliprole: chlorantraniliprole alone or with 200 mg/L synergist, 48 hours; for LC50 of chlorantraniliprole solution: in vivo
Method: as §1, §2, §3

[3] = target: PxGSTε3 (Plutella xylostella, UniProt O77409); test: Inhibition of PxGSTε3 recombinant protein; format: biochemical; conditions: read-out: 100 μM Inhibition rate %
PxGSTε3, sequence (O77409 entry or part of it): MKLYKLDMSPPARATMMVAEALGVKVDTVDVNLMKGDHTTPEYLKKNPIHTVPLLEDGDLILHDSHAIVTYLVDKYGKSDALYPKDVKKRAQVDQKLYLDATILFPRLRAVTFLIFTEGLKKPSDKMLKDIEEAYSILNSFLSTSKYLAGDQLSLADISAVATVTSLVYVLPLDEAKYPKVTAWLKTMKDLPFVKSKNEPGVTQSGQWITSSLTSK
Method in brief: (§5)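 Recombinant Plutella xylostella GSTs (1 μg) preincubated with compound in 100 mM PBS pH 7.2, 10 min, 30 °C; 1 mM CDNB and 1 mM GSH in PBS then added. A340 read every 1 min for 5 min; inhibition from A340 change vs control, IC50 by curve fit, triplicate.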

[4] = target: PxGSTσ2 (Plutella xylostella, UniProt Q6F443); test: Inhibition of PxGSTσ2 recombinant protein; format: biochemical; conditions: read-out: 100 μM Inhibition rate %
PxGSTσ2, sequence (Q6F443 entry or part of it): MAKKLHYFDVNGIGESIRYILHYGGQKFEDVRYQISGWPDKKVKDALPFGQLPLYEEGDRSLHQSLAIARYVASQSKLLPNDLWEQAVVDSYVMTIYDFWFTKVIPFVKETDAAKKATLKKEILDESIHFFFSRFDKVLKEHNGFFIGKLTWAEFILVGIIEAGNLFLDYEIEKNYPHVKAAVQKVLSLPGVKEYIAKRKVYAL
Method in brief: as §5

[5] = system: high resistant strains I of Plutella xylostella (Lianzhou insect source); test: Insecticidal synergistic activity with chlorantraniliprole, high resistant strains I (Lianzhou insect source); format: in vivo; conditions: for Resistance ratio to chlorantraniliprole: high resistant strains I (Lianzhou)
Method: as §1, §2, §3
as §4, with “I” for “II”, “100” for “100 mg/L, 50”, “50” for “25”

[6] = target: PxGSTδ1 (Plutella xylostella, UniProt D7URW9); test: Inhibition of PxGSTδ1 recombinant protein; format: biochemical; conditions: read-out: 100 μM Inhibition rate %
PxGSTδ1, sequence (D7URW9 entry or part of it): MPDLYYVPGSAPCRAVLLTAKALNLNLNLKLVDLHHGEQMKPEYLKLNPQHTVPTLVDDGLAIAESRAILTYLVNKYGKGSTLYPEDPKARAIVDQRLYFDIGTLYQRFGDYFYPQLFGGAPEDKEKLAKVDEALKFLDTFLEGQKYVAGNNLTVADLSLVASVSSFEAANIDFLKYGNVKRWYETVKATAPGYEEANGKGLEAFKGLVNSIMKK
Method in brief: as §5

[7] = system: resistant strains of Plutella xylostella; test: Insecticidal synergistic activity with indoxacarb, leaf dip, resistant strains (Huizhou); format: in vivo; conditions: for Resistance ratio to indoxacarb: 48 hours
Method: as §1, with “Experiment: 95% indoxacarb (Ind)” for “Experiment: 96% chlorantraniliprole (Chl)”, “the compounds PXG1, PXG2 and” for “the compound”, “invention were” for “invention was”, “in Huizhou city, Guangdong” for “in Yunnan”
as §2, §3

[8] = system: ultra-high resistant strains of Plutella xylostella (Huizhou insect source); test: Insecticidal synergistic activity with chlorantraniliprole, ultra-high resistant strains (Huizhou insect source); format: in vivo; conditions: for Resistance ratio to chlorantraniliprole: chlorantraniliprole alone or with 200 mg/L synergist, ultra-high resistant strains (Huizhou); for LC50 of chlorantraniliprole solution: in vivo
Method: as §1, §2, §3
Experiment: The method was the same as in Experimental Example 4. The tested Plutella xylostella was ultra-high resistance strains to chlorantraniliprole (Huizhou insect source). The compound PXG22 of the present invention was added at a concentration of 200 mg/L. The control synergist diethyl maleate (DEM) was added at a concentration of 200 mg/L.

[9] = target: PxGSTσ1 (Plutella xylostella, UniProt Q6F436); test: Inhibition of PxGSTσ1 recombinant protein; format: biochemical; conditions: read-out: 100 μM Inhibition rate %
PxGSTσ1, sequence (Q6F436 entry or part of it): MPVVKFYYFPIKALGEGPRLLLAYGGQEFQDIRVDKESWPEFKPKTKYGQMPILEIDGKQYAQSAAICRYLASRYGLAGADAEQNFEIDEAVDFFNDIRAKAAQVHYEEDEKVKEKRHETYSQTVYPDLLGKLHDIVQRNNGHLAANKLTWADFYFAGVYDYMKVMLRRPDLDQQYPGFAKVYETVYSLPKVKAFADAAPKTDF
Method in brief: as §5

[10] = system: Mythimna separata GSTs; test: Inhibition of total GSTs enzyme of Mythimna separata (CDNB method); format: biochemical
Method in brief: (§6)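 Total GSTs were taken from the 14,000 g supernatant of larval/nymph homogenate in 100 mM sodium phosphate with 1 mM EDTA, pH 7.2. Enzyme (5 μg) was preincubated with compound in PBS pH 7.2 containing 1 mM GSH for 10 min at 30 °C, then started with buffer containing 1 mM CDNB. IC50 was derived from inhibition of the 5-min ΔA340, done in triplicate.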

[11] = target: Chilo suppressalis GSTs; test: Inhibition of total GSTs enzyme of Chilo suppressalis (CDNB method); format: biochemical
Method in brief: as §6

[12] = target: Carposina sasakii GSTs; test: Inhibition of total GSTs enzyme of Carposina sasakii (CDNB method); format: biochemical
Method in brief: as §6

[13] = system: Nilaparvata lugens GSTs; test: Inhibition of total GSTs enzyme of Nilaparvata lugens (CDNB method); format: biochemical
Method in brief: as §6

[14] = target: Helicoverpa armigera GSTs; test: Inhibition of total GSTs enzyme of Helicoverpa armigera (CDNB method); format: biochemical
Method in brief: as §6

[15] = target: Spodoptera litura GSTs; test: Inhibition of total GSTs enzyme of Spodoptera litura (CDNB method); format: biochemical
Method in brief: as §6

[16] = system: Spodoptera frugiperda GSTs; test: Inhibition of total GSTs enzyme of Spodoptera frugiperda (CDNB method); format: biochemical
Method in brief: as §6

[17] = target: Plutella xylostella GSTs; test: Inhibition of total GSTs enzyme of Plutella xylostella (CDNB method); format: biochemical
Method in brief: as §6

[18] = target: Pyrausta nubilalis GSTs; test: Inhibition of total GSTs enzyme of Pyrausta nubilalis (CDNB method); format: biochemical
Method in brief: as §6

[19] = chlorantraniliprole alone or with 200 mg/L synergist
[20] = indoxacarb alone or with 200 mg/L synergist
[21] = Plutella xylostella, read-out: LC50 of chlorantraniliprole solution

O=C(NNC(=O)c1cc(-c2ccccc2)nn1-c1ccccc1)c1cc(=O)[nH]c2ccccc12 [PXG22, N′-(1,3-diphenyl-1H-pyrazol-5-yl-carbonyl)-2-oxo-1,2-dihydroquinoline-4-yl-carbohydrazide]
Resistance ratio to chlorantraniliprole ([1]; 25 mg/L PXG22 added): 341.48 | Resistance ratio to chlorantraniliprole ([1]; 50 mg/L PXG22 added): 312.52 | Resistance ratio to chlorantraniliprole ([1]; 100 mg/L PXG22 added): 195.04 | Resistance ratio to chlorantraniliprole [1, 19]: 243.13 | Resistance ratio to chlorantraniliprole [2]: 61.04 | LC50 of chlorantraniliprole solution [2]: 14.04 µg/mL | inhibition at 100 µM [3]: 65.8% | inhibition at 100 µM [4]: 76.7% | Resistance ratio to chlorantraniliprole ([5]; 50 mg/L PXG22 added): 216.91 | Resistance ratio to chlorantraniliprole ([5]; 100 mg/L PXG22 added): 92 | Resistance ratio to chlorantraniliprole [5, 19]: 175.82 | inhibition at 100 µM [6]: 78.8% | LC50 of indoxacarb ([7]; in vivo): 51.21 µg/mL | Resistance ratio to indoxacarb [7, 20]: 98.48 | Resistance ratio to chlorantraniliprole [8]: 645.43 | LC50 of chlorantraniliprole solution [8]: 148.45 µg/mL | inhibition at 100 µM [9]: 45.7%

O=C(NNC(=O)c1cc(-c2ccccc2)nn1-c1ccccc1)c1cc[nH]c(=O)c1 [PXG1, N′-(1,3-diphenyl-1H-pyrazol-5-yl-carbonyl)-2-oxo-1,2-dihydropyridinyl-4-carbohydrazide]
100 μM Inhibition rate % [10]: 95.19% | inhibition at 100 µM [3]: 17.6% | inhibition at 100 µM [4]: 58.1% | IC50 [11]: 8.24 µM | 100 μM Inhibition rate % [11]: 92.32% | inhibition at 100 µM [6]: 68.9% | IC50 [12]: 52.6 µM | 100 μM Inhibition rate % [12]: 71.91% | 100 μM Inhibition rate % [13]: 100.60% | LC50 of indoxacarb ([7]; in vivo): 59.13 µg/mL | Resistance ratio to indoxacarb [7, 20]: 113.71 | IC50 [14]: 52.8 µM | 100 μM Inhibition rate % [14]: 77.22% | IC50 [15]: 17.7 µM | 100 μM Inhibition rate % [15]: 80.06% | 100 μM Inhibition rate % [16]: 58.40% | IC50 [17]: 27.6 µM | 100 μM Inhibition rate % [17]: 70.90% | inhibition at 100 µM [9]: 25.5% | IC50 [18]: 12.1 µM | 100 μM Inhibition rate % [18]: 87.80%

Cc1csc(CC(=O)NNC(=O)c2cc(-c3ccccc3)nn2-c2ccccc2)n1 [PXG2, N′-[2-(4-methyl-1,3-thiazol-2-yl)acetyl]-1,3-diphenyl-1H-pyrazol-5-yl-carbohydrazide]
inhibition at 100 µM [3]: -4% | inhibition at 100 µM [4]: 14.6% | inhibition at 100 µM [6]: 87.8% | LC50 of indoxacarb ([7]; in vivo): 39.93 µg/mL | Resistance ratio to indoxacarb [7, 20]: 76.78 | inhibition at 100 µM [9]: 25.1%

COC(=O)N(C(=O)N1CO[C@@]2(C(=O)OC)Cc3cc(Cl)ccc3C2=N1)c1ccc(OC(F)(F)F)cc1 [Ind, Indoxacarb, reference compound]
LC50 of indoxacarb ([7]; indoxacarb alone or with 200 mg/L synergist, 3rd instar larvae, mortality after 48 hours): 74.72 µg/mL | Resistance ratio to indoxacarb [7, 20]: 143.70

CCOC(=O)/C=C\C(=O)OCC [DEM, diethyl maleate, reference compound]
Resistance ratio to chlorantraniliprole [1, 19]: 469.52 | LC50 of chlorantraniliprole solution ([1]; in vivo): 107.99 µg/mL | Resistance ratio to chlorantraniliprole [2]: 217.48 | LC50 of chlorantraniliprole solution [2]: 50.02 µg/mL | Resistance ratio to chlorantraniliprole [5, 19]: 232 | LC50 of chlorantraniliprole solution ([5]; in vivo): 53.36 µg/mL | LC50 of indoxacarb ([7]; in vivo): 54.11 µg/mL | Resistance ratio to indoxacarb [7, 20]: 104.06 | Resistance ratio to chlorantraniliprole [8]: 1925.26 | LC50 of chlorantraniliprole solution [8]: 442.81 µg/mL

CNC(=O)c1cc(Cl)cc(C)c1NC(=O)c1cc(Br)nn1-c1ncccc1Cl [Chl, Chlorantraniliprole, reference compound]
LC50 [1, 21]: 145 µg/mL | Resistance ratio to chlorantraniliprole [1, 19]: 631.26 | LC50 ([2]; Plutella xylostella, foliar, 48 h, read-out: LC50 of chlorantraniliprole solution): 110 µg/mL | Resistance ratio to chlorantraniliprole [2]: 479 | LC50 [5, 21]: 134 µg/mL | Resistance ratio to chlorantraniliprole [5, 19]: 583.74 | LC50 [8, 21]: 503 µg/mL | Resistance ratio to chlorantraniliprole [8]: 2188.61

N#Cc1ccccc1OCC(=O)NNC(=O)c1cc(-c2ccccc2)nn1-c1ccccc1 [PXG23, 2-(2-cyanophenoxy)-N′-(1,3-diphenyl-1H-pyrazol-5-yl-carbonyl)acetohydrazide]
IC50 [10]: > 100 µM | 100 μM Inhibition rate % [10]: 22.92% | inhibition at 100 µM [3]: 6.04% | inhibition at 100 µM [4]: 26.9% | IC50 [11]: > 100 µM | 100 μM Inhibition rate % [11]: 22.83% | inhibition at 100 µM [6]: 77.7% | IC50 [12]: > 100 µM | 100 μM Inhibition rate % [12]: 19.76% | IC50 [13]: > 100 µM | 100 μM Inhibition rate % [13]: 24.74% | IC50 [14]: > 100 µM | 100 μM Inhibition rate % [14]: 0.43% | IC50 [15]: > 100 µM | 100 μM Inhibition rate % [15]: 12.89% | IC50 [16]: > 100 µM | 100 μM Inhibition rate % [16]: 22.33% | IC50 [17]: > 100 µM | 100 μM Inhibition rate % [17]: 26.35% | inhibition at 100 µM [9]: 35.9% | IC50 [18]: > 100 µM | 100 μM Inhibition rate % [18]: 15.55%
